Test system: HDV
Assay: HBV/HDV co-infected viral spread assay in primary human hepatocytes (PHH)
Assay type: cell-based, hepatitis D virus (HDV) in primary human hepatocytes
Conditions: primary infection; lonafarnib 5 μM to 6.9 nM for 9 days; BLV 0.8 nM where present
Description: Cryopreserved PHH were thawed and cells were recovered by centrifugation at 100×g (Beckman Coulter, Allegra X-14R) through cryopreserved hepatocyte recovery medium (Thermo Fisher Scientific; CM7500) and plated in collagen coated 96-well plates (Thermo Fisher Scientific; CM1096) at a density of 70,000 live cells per well. Cells were plated in William's E medium (Thermo Fisher Scientific; A1217601) supplemented with 3.6% hepatocyte thawing and plating supplement (Thermo Fisher Scientific, A15563), 5% fetal bovine serum (Thermo Fisher Scientific; 16000-036), 1 μM dexamethasone (Thermo Fisher Scientific, A15563), and 0.2% Torpedo antibiotic mix (BioreclamationIVT; Z990008). […]
Vehicle and compound containing wells were normalized such that the final concentration of DMSO was 1.5% (v/v). The medium was collected and extracellular HBsAg was measured by an electrochemiluminescence assay (MSD) according to the manufacturer's instructions (Meso Scale Diagnostics, Rockville, MD). […] Levels of HDV RNA were calculated as fold change relative to DMSO treated sample using the 2-ΔΔCt method (Livak K J, Schmittgen T D. Analysis of relative gene expression data using real-time quantitative PCR and the 2(-Delta Delta C(T)) Method. Methods 2001).

Structure (SMILES): NC(=O)N1CCC(CC(=O)N2CCC([C@H]3c4ncc(Br)cc4CCc4cc(Cl)cc(Br)c43)CC2)CC1 [lonafarnib, (R)-4-(2-(4-(3,10-dibromo-8-chloro-6,11-dihydro-5H-benzo[5,6]cyclohepta[1,2-b]pyridin-11-yl)piperidin-1-yl)-2-oxoethyl)piperidine-1-carboxamide]
- intracellular HDV RNA (qRT-PCR, fold change relative to DMSO): induced dose-dependent intracellular accumulation of HDV RNA
